Columns and labels:
[1] = molecular target: Sigma non-opioid intracellular receptor 1 (Homo sapiens, UniProt Q99720); assay: Binding affinity to sigma 1 receptor
[2] = Binding affinity to sigma 2 receptor
[3] = molecular target: T1, Sodium-dependent dopamine transporter (Homo sapiens, UniProt Q01959); assay: Binding affinity to DAT
[4] = Selectivity, ratio of Ki for sigma 1 to Ki for sigma 2
[5] = molecular target: 5-hydroxytryptamine receptor 1A (Homo sapiens) (UniProt P08908); assay: Inhibition of 5HT1A receptor at 10 uM
[6] = molecular target: 5-hydroxytryptamine receptor 1B (Homo sapiens) (UniProt P28222); assay: Inhibition of 5HT1B receptor at 10 uM
[7] = molecular target: 5-hydroxytryptamine receptor 1D (Homo sapiens) (UniProt P28221); assay: Inhibition of 5HT1D receptor at 10 uM
[8] = molecular target: 5-hydroxytryptamine receptor 1E (Homo sapiens) (UniProt P28566); assay: Inhibition of 5HT1E receptor at 10 uM
[9] = molecular target: 5-hydroxytryptamine receptor 2A (Homo sapiens) (UniProt P28223); assay: Inhibition of 5HT2A receptor at 10 uM
[10] = molecular target: 5-hydroxytryptamine receptor 2B (Homo sapiens) (UniProt P41595); assay: Inhibition of 5HT2B receptor at 10 uM
[11] = molecular target: 5-hydroxytryptamine receptor 2C (Homo sapiens) (UniProt P28335); assay: Inhibition of 5HT2C receptor at 10 uM
[12] = molecular target: 5-hydroxytryptamine receptor 3A (Homo sapiens) (UniProt P46098); assay: Inhibition of 5HT3 receptor at 10 uM
[13] = molecular target: 5-hydroxytryptamine receptor 5A (Homo sapiens) (UniProt P47898); assay: Inhibition of 5HT5A receptor at 10 uM
[14] = molecular target: 5-hydroxytryptamine receptor 6 (Homo sapiens) (UniProt P50406); assay: Inhibition of 5HT6 receptor at 10 uM
[15] = molecular target: 5-hydroxytryptamine receptor 7 (Homo sapiens) (UniProt P34969); assay: Inhibition of 5HT7 receptor at 10 uM
[16] = Inhibition of 5HT receptor at 10 uM
[17] = molecular target: Alpha-1A adrenergic receptor (Homo sapiens) (UniProt P35348); assay: Inhibition of Alpha1A adrenoceptor receptor at 10 uM
[18] = molecular target: Alpha-1B adrenergic receptor (Homo sapiens) (UniProt P35368); assay: Inhibition of Alpha1B adrenoceptor receptor at 10 uM
[19] = molecular target: Alpha-2A adrenergic receptor (Homo sapiens) (UniProt P08913); assay: Inhibition of Alpha2A adrenoceptor receptor at 10 uM
[20] = molecular target: Alpha-2B adrenergic receptor (Homo sapiens) (UniProt P18089); assay: Inhibition of Alpha2B adrenoceptor receptor at 10 uM
[21] = molecular target: T2, Alpha-2C adrenergic receptor (Homo sapiens) (UniProt P18825); assay: Inhibition of Alpha2C adrenoceptor receptor at 10 uM
T2 sequence (whole entry): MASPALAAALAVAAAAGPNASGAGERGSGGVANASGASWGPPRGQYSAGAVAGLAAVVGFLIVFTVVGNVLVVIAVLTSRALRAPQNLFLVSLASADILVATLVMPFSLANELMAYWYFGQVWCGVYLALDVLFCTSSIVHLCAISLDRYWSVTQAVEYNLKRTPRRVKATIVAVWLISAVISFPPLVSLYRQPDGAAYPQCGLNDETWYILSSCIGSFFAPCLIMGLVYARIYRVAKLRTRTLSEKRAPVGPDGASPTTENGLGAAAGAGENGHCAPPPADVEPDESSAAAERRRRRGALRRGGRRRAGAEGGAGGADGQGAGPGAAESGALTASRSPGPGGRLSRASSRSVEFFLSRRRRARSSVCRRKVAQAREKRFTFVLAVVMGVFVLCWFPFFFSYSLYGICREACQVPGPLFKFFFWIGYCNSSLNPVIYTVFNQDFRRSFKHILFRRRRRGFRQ

[22] = molecular target: Beta-1 adrenergic receptor (Homo sapiens) (UniProt P08588); assay: Inhibition of beta-1 adrenoceptor receptor at 10 uM
[23] = molecular target: Beta-2 adrenergic receptor (Homo sapiens) (UniProt P07550); assay: Inhibition of beta2 adrenoceptor receptor at 10 uM
[24] = Inhibition of Ca2+ channel at 10 uM
[25] = molecular target: Cannabinoid receptor 1 (Homo sapiens) (UniProt P21554); assay: Inhibition of CB1 receptor at 10 uM
[26] = molecular target: Cannabinoid receptor 2 (Homo sapiens) (UniProt P34972); assay: Inhibition of CB2 receptor at 10 uM
[27] = molecular target: D(1A) dopamine receptor (Homo sapiens) (UniProt P21728); assay: Inhibition of D1 receptor at 10 uM
[28] = molecular target: D(2) dopamine receptor (Homo sapiens) (UniProt P14416); assay: Inhibition of D2 receptor at 10 uM
[29] = molecular target: T1, Sodium-dependent dopamine transporter; assay: Inhibition of DAT at 10 uM
[30] = molecular target: Delta-type opioid receptor (Homo sapiens) (UniProt P41143); assay: Inhibition of Delta opioid receptor at 10 uM
[31] = molecular target: Histamine H1 receptor (Homo sapiens) (UniProt P35367); assay: Inhibition of histamine H1 receptor at 10 uM
[32] = molecular target: Histamine H2 receptor (Homo sapiens) (UniProt P25021); assay: Inhibition of histamine H2 receptor at 10 uM
[33] = molecular target: Histamine H3 receptor (Homo sapiens) (UniProt Q9Y5N1); assay: Inhibition of histamine H3 receptor at 10 uM
[34] = molecular target: Histamine H4 receptor (Homo sapiens) (UniProt Q9H3N8); assay: Inhibition of histamine H4 receptor at 10 uM
[35] = molecular target: Kappa-type opioid receptor (Homo sapiens) (UniProt P41145); assay: Inhibition of Kappa opioid receptor at 10 uM
[36] = molecular target: Mu-type opioid receptor (Homo sapiens) (UniProt P35372); assay: Inhibition of mu opioid receptor at 10 uM
[37] = molecular target: T3, Sodium-dependent noradrenaline transporter (Homo sapiens, UniProt P23975); assay: Inhibition of NET at 10 uM
[38] = Inhibition of phencyclidine binding site of NMDA receptor at 10 uM
[39] = molecular target: T4, Alpha-2C adrenergic receptor (Homo sapiens, UniProt P18825); assay: (§1) Binding affinity to Alpha2C adrenoceptor receptor
T4 sequence (P18825 whole entry): T2 sequence (whole entry)

[40] = molecular target: 5-hydroxytryptamine receptor 1A (Homo sapiens, UniProt P08908); assay: Binding affinity to 5HT1A receptor
[41] = molecular target: 5-hydroxytryptamine receptor 4 (Homo sapiens) (UniProt Q13639); assay: Inhibition of 5HT4 receptor at 10 uM
[42] = molecular target: T4, Alpha-2C adrenergic receptor; assay: as §1; remark: listed apart in the source
[43] = molecular target: T3, Sodium-dependent noradrenaline transporter; assay: Binding affinity to NET

T1 sequence (Q01959 whole entry): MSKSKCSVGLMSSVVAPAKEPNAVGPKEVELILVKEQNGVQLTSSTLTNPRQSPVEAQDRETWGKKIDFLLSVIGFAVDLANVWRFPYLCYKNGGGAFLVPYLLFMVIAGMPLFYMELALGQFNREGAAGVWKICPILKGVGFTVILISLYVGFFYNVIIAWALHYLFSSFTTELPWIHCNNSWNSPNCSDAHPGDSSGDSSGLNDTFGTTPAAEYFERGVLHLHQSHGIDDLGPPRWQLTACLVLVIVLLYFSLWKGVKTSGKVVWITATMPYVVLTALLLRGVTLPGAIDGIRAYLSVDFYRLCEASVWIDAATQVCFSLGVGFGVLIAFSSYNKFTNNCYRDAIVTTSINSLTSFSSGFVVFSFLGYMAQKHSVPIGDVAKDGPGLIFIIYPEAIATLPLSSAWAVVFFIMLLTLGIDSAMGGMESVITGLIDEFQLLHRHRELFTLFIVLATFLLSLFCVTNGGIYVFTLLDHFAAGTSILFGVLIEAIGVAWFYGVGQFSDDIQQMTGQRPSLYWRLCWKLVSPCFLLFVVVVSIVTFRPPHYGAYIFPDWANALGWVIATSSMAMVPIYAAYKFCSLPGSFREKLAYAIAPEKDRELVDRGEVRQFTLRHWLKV
Sigma non-opioid intracellular receptor 1, sequence (Q99720 whole entry): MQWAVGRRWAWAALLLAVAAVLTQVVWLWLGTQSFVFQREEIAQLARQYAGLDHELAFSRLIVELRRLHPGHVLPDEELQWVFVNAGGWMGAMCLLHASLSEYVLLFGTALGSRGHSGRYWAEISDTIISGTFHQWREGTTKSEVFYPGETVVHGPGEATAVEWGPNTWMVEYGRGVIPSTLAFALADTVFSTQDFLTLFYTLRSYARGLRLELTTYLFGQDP
Histamine H2 receptor (Homo sapiens), sequence (P25021 whole entry): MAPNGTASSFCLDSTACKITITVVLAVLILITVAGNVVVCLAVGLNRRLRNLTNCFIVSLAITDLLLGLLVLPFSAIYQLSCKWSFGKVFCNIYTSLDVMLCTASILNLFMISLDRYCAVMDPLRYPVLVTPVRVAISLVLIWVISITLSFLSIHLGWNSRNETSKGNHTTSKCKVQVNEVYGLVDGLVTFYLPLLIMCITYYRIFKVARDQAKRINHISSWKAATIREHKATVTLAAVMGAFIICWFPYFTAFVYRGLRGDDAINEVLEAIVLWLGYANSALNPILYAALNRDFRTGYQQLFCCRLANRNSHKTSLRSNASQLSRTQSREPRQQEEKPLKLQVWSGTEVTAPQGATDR
Cannabinoid receptor 2 (Homo sapiens), sequence (P34972 whole entry): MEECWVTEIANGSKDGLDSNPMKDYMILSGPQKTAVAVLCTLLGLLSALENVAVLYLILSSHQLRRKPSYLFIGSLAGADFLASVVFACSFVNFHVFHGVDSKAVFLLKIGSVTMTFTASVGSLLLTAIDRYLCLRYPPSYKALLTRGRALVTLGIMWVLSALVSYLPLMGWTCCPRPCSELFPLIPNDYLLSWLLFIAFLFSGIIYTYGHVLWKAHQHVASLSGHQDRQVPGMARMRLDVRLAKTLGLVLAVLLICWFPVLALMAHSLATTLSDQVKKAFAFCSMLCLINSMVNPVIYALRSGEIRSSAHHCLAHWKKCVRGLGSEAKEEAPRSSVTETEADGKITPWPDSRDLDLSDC
Delta-type opioid receptor (Homo sapiens), sequence (P41143 whole entry): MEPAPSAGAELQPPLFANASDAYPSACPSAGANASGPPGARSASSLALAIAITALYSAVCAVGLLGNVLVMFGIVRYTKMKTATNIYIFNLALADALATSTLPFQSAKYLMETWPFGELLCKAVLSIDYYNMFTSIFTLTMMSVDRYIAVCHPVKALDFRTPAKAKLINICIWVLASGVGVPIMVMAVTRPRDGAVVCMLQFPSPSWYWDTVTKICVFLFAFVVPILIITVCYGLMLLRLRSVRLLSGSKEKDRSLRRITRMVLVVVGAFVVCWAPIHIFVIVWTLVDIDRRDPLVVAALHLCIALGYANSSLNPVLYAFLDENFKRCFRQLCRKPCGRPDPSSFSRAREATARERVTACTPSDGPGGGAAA
Alpha-1A adrenergic receptor (Homo sapiens), sequence (P35348 whole entry): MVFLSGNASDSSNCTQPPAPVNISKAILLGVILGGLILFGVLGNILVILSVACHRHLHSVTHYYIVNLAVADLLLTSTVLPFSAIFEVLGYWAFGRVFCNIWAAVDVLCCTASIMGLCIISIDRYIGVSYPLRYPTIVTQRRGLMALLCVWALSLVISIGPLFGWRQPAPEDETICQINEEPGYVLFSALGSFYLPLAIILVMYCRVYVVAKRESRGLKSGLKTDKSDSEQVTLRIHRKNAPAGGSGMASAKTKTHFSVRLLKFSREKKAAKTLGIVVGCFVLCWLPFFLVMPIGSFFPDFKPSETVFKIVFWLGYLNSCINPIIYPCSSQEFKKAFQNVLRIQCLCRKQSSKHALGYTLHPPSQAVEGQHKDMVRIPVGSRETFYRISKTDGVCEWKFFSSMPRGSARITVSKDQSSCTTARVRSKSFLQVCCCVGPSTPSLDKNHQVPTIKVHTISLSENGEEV
5-hydroxytryptamine receptor 1D (Homo sapiens), sequence (P28221 whole entry): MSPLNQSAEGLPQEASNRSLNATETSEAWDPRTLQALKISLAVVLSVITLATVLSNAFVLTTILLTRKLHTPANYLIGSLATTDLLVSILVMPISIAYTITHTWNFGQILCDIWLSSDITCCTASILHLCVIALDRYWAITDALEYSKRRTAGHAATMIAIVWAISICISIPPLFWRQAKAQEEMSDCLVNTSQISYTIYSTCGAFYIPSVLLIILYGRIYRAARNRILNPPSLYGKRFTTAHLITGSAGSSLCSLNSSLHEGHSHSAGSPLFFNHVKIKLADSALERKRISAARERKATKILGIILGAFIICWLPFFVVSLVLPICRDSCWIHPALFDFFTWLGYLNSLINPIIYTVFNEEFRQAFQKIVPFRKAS
Alpha-2A adrenergic receptor (Homo sapiens), sequence (P08913 whole entry): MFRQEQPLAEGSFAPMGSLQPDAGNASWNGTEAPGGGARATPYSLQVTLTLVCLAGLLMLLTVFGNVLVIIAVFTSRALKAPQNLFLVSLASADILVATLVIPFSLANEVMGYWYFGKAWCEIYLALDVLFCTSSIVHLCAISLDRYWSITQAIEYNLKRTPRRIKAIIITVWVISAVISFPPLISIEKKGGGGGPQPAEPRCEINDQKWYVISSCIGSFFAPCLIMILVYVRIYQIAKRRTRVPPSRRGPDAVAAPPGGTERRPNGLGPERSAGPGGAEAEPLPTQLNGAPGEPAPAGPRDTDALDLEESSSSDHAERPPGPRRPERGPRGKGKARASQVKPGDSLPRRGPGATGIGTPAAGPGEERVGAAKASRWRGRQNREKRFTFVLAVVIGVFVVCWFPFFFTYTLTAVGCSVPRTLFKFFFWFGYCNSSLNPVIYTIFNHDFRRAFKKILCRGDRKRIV
D(2) dopamine receptor (Homo sapiens), sequence (P14416 whole entry): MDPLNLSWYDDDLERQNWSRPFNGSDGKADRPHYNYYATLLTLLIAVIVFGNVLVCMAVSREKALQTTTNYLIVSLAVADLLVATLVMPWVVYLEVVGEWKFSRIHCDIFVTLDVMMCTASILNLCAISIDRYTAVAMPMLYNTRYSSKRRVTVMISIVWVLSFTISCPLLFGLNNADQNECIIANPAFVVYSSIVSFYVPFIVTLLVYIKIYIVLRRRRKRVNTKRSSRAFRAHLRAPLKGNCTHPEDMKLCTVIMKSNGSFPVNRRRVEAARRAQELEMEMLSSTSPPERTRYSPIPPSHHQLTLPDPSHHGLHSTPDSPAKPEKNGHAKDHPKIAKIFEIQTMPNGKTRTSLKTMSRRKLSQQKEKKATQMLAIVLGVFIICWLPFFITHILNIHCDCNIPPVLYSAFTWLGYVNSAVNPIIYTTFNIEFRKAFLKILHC
5-hydroxytryptamine receptor 1E (Homo sapiens), sequence (P28566 whole entry): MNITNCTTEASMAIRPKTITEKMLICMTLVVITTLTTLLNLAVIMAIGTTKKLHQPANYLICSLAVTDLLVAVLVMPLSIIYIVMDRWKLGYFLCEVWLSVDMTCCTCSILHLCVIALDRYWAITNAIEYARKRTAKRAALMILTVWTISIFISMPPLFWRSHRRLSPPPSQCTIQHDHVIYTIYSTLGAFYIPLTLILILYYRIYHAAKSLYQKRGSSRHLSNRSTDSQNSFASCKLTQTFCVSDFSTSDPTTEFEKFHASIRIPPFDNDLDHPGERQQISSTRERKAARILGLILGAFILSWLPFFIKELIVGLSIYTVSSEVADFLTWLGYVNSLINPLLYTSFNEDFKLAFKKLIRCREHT
Beta-2 adrenergic receptor (Homo sapiens), sequence (P07550 whole entry, looked up): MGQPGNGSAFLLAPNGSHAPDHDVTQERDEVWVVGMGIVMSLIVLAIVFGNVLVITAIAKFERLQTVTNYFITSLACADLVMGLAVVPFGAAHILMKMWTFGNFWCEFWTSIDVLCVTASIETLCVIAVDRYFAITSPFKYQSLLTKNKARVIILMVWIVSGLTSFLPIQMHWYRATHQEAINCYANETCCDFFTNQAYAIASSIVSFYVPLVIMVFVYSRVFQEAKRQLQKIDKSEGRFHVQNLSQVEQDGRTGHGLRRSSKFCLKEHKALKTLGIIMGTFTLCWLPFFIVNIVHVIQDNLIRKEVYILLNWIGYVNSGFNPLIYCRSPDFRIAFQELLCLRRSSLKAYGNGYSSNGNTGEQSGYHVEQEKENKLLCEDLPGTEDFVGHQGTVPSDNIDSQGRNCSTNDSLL
5-hydroxytryptamine receptor 3A (Homo sapiens), sequence (P46098 whole entry): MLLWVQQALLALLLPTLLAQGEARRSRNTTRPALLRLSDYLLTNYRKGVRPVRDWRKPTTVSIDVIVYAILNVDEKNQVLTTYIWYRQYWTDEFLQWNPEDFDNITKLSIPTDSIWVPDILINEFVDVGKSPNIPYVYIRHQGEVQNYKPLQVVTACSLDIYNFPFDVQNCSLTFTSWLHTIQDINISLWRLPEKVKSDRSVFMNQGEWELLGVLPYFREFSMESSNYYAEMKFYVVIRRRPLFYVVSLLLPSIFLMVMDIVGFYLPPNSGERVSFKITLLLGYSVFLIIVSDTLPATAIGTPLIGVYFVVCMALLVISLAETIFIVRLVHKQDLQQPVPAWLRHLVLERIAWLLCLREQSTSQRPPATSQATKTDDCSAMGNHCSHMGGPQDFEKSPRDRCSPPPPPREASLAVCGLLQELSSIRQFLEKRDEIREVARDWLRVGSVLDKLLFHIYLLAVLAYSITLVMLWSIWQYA

For `Fc1cccc(CNC23OC4C5C6CC(C7C6C4C72)C53)c1` (stereo not drawn), the Ki [1] was 2280 nM, the Ki [2] was 1640 nM and the Ki [3] was > 10 µM. For the same molecule, the Ratio [4] was 1.39, the inhibition [5] was < 50% and the inhibition [6] was < 50%. For the same molecule, the inhibition [7] was < 50%, the inhibition [8] was < 50% and the inhibition [9] was < 50%. For the same molecule, the inhibition [10] was < 50%, the inhibition [11] was < 50% and the inhibition [12] was < 50%. The inhibition [13] was < 50%, the inhibition [14] was < 50% and the inhibition [15] was < 50%. The inhibition [16] was < 50%, the inhibition [17] was < 50% and the inhibition [18] was < 50%. For the same molecule, the inhibition [19] was < 50%, the inhibition [20] was < 50% and the inhibition [21] was < 50%. The inhibition [22] was < 50%, the inhibition [23] was < 50% and the inhibition [24] was < 50%. The inhibition [25] was < 50%, the inhibition [26] was < 50% and the inhibition [27] was < 50%. For the same molecule, the inhibition [28] was < 50%, the inhibition [29] was < 50% and the inhibition [30] was < 50%. For the same molecule, the inhibition [31] was < 50%, the inhibition [32] was < 50% and the inhibition [33] was < 50%. The inhibition [34] was < 50%, the inhibition [35] was < 50% and the inhibition [36] was < 50%. The inhibition [37] was < 50% and the inhibition [38] was < 50%.

For `OC12C3C4CC5C6C4C1C6C(C53)N2CCc1cccc(F)c1` (stereo not drawn), the Ki [1] was 12 nM, the Ki [2] was 48 nM and the Ki [3] was > 10 µM. For the same molecule, the Ratio [4] was 0.25, the Ki [39] was > 10 µM and the inhibition [16] was < 50%. For the same molecule, the inhibition [21] was < 50% and the inhibition [29] was < 50%.

For `OC12C3C4CC5C6C4C1C6C(C53)N2Cc1cccc(F)c1` (stereo not drawn), the Ki [1] was 153 nM, the Ki [2] was 31 nM and the Ki [3] was > 10 µM. For the same molecule, the Ratio [4] was 4.94, the Ki [39] was > 10 µM and the inhibition [16] was < 50%. The inhibition [21] was < 50% and the inhibition [29] was < 50%.

For `Fc1cccc(CCNC23OC4C5C6CC(C7C6C4C72)C53)c1` (stereo not drawn), the Ki [1] was 149 nM, the Ki [2] was 363 nM and the Ki [3] was 0.137 µM. For the same molecule, the Ratio [4] was 0.41, the Ki [39] was 0.02 µM and the Ki [40] was > 10 µM. The inhibition [6] was < 50%, the inhibition [7] was < 50% and the inhibition [8] was < 50%. The inhibition [9] was < 50%, the inhibition [10] was < 50% and the inhibition [11] was < 50%. For the same molecule, the inhibition [12] was < 50%, the inhibition [41] was < 50% and the inhibition [13] was < 50%. The inhibition [14] was < 50%, the inhibition [15] was < 50% and the inhibition [16] was < 50%. For the same molecule, the inhibition [17] was < 50%, the inhibition [18] was < 50% and the inhibition [19] was < 50%. The inhibition [20] was < 50%, the Ki [42] was 20 nM and the inhibition [22] was < 50%. For the same molecule, the inhibition [23] was < 50%, the inhibition [24] was < 50% and the inhibition [25] was < 50%. The inhibition [26] was < 50%, the inhibition [27] was < 50% and the inhibition [28] was < 50%. For the same molecule, the inhibition [30] was < 50%, the inhibition [31] was < 50% and the inhibition [32] was < 50%. The inhibition [33] was < 50%, the inhibition [34] was < 50% and the inhibition [35] was < 50%. The inhibition [36] was < 50%, the Ki [43] was > 10 µM and the inhibition [38] was < 50%.

Source: ChEMBL document CHEMBL1153172, “Oxo-bridged isomers of aza-trishomocubane sigma (sigma) receptor ligands: Synthesis, in vitro binding, and molecular modeling” (Bioorg Med Chem Lett, 2010)
